ChEMBL document CHEMBL1955725, “Structure-guided lead optimization of triazolopyrimidine-ring substituents identifies potent Plasmodium falciparum dihydroorotate dehydrogenase inhibitors with clinical candidate potential” (J Med Chem, 2011)
Converted amounts (≈) assume the structure as drawn.

Columns and labels:
[1] = AUC (0 to infinity) in Sprague-Dawley rat at 2.1 mg/kg, po; assay type: ADME, organism-based; parameters: time infinity, dose 2.1 mg/kg, route oral; details: plasma
[2] = Terminal elimination half life in Sprague-Dawley rat at 2.1 mg/kg, po; assay type: ADME, organism-based; parameters: dose 2.1 mg/kg, route oral; details: in vivo, read-out: beta t1/2 (converted)
[3] = Cmax in Sprague-Dawley rat at 2.1 mg/kg, po; assay type: ADME, organism-based; parameters: dose 2.1 mg/kg, route oral; details: in vivo
[4] = Cmax in Swiss outbred mouse at 10 mg/kg, po; assay type: ADME, organism-based; parameters: dose 10 mg/kg, route oral; details: in vivo
[5] = test system: Plasmodium falciparum; assay: Antimalarial activity against Plasmodium falciparum D10 by [3H]hypoxanthine incorporation assay; assay type: functional, organism-based
[6] = Oral bioavailability in Sprague-Dawley rat at 46.7 mg/kg; assay type: ADME, organism-based; details: in vivo
[7] = test system: Plasmodium falciparum; assay: Antimalarial activity against chloroquine and pyrimethamine-resistant Plasmodium falciparum K1 by [3H]hypoxanthine incorporation assay in presence of human serum; assay type: functional, organism-based
[8] = Terminal elimination half life in Sprague-Dawley rat at 18.8 mg/kg, po; assay type: ADME, organism-based; parameters: dose 18.8 mg/kg, route oral; details: in vivo, read-out: beta t1/2 (converted)
[9] = Cmax in Swiss outbred mouse at 50 mg/kg, po; assay type: ADME, organism-based; parameters: dose 50 mg/kg, route oral; details: in vivo
[10] = Terminal elimination half life in Sprague-Dawley rat at 2.6 mg/kg, iv; assay type: ADME, organism-based; parameters: dose 2.6 mg/kg, route intravenous; details: in vivo, read-out: beta t1/2 (converted)
[11] = test system: Plasmodium falciparum; assay: Antimalarial activity against Plasmodium falciparum 3D7 by [3H]hypoxanthine incorporation assay in presence of albumax; assay type: functional, organism-based
[12] = test system: Plasmodium falciparum; assay: Antimalarial activity against atovoquone-resistant Plasmodium falciparum TM90C2B by [3H]hypoxanthine incorporation assay in presence of human serum; assay type: functional, organism-based
[13] = test system: Mus musculus; assay: Time plasma concentration remained above 1 uM in Swiss outbred mouse plasma at 2 mg/kg, po; assay type: ADME, organism-based; parameters: dose 2 mg/kg, route oral; details: in vivo
[14] = Terminal elimination half life in Swiss outbred mouse at 2 mg/kg, po; assay type: ADME, organism-based; parameters: dose 2 mg/kg, route oral; details: in vivo, read-out: beta t1/2 (converted)
[15] = Cmax in Swiss outbred mouse at 2 mg/kg, po; assay type: ADME, organism-based; parameters: dose 2 mg/kg, route oral; details: in vivo
[16] = test system: Liver microsomes; assay: Intrinsic clearance in human liver microsomes; assay type: ADME, Microsome
[17] = Volume of distribution in Sprague-Dawley rat at 2.6 mg/kg, iv; assay type: ADME, organism-based; parameters: dose 2.6 mg/kg, route intravenous; details: in vivo
[18] = test system: Plasmodium falciparum; assay: Antimalarial activity against Plasmodium falciparum 3D7 by [3H]hypoxanthine incorporation assay in presence of human serum; assay type: functional, organism-based
[19] = Plasma protein binding in Sprague-Dawley rat at 2.1 to 46.7 mg/kg, po; assay type: ADME, organism-based; parameters: dose 2.1-46.7 mg/kg, route oral; details: read-out: PPB (converted)
[20] = in vivo; details: Sprague-Dawley, rat, po, 46.7 mg/kg
[21] = AUC (0 to infinity) in Sprague-Dawley rat at 18.8 mg/kg, po; assay type: ADME, organism-based; parameters: time infinity, dose 18.8 mg/kg, route oral; details: plasma
[22] = Cmax in Sprague-Dawley rat at 18.8 mg/kg, po; assay type: ADME, organism-based; parameters: dose 18.8 mg/kg, route oral; details: in vivo
[23] = in vivo; details: NOD-SCID IL-2Rgamma-null, mouse, po, 7 mg/kg
[24] = test system: HepG2; assay: Cytotoxicity against human HepG2 cells; assay type: cell-based
[25] = test system: Plasmodium falciparum; assay: Antimalarial activity against chloroquine-resistant Plasmodium falciparum Dd2 by [3H]hypoxanthine incorporation assay in presence of human serum; assay type: functional, organism-based
[26] = Clearance in Sprague-Dawley rat at 2.6 mg/kg, iv; assay type: ADME, organism-based; parameters: dose 2.6 mg/kg, route intravenous; details: in vivo
[27] = in vivo; details: Swiss outbred, mouse, po, 10 mg/kg
[28] = AUC (0 to infinity) in Swiss outbred mouse plasma at 50 mg/kg, po; assay type: ADME, organism-based; parameters: time infinity, dose 50 mg/kg, route oral
[29] = in vivo; details: Swiss outbred, mouse, po, 2 mg/kg
[30] = Terminal elimination half life in Swiss outbred mouse at 0.4 mg/kg, po; assay type: ADME, organism-based; parameters: dose 0.4 mg/kg, route oral; details: in vivo, read-out: beta t1/2 (converted)
[31] = Cmax in Sprague-Dawley rat at 46.7 mg/kg, po; assay type: ADME, organism-based; parameters: dose 46.7 mg/kg, route oral; details: in vivo
[32] = test system: Plasmodium falciparum; assay: Antimalarial activity against drug-sensitive Plasmodium falciparum D6 by [3H]hypoxanthine incorporation assay in presence of human serum; assay type: functional, organism-based
[33] = test system: Mus musculus; assay: Time plasma concentration remained above 1 uM in Swiss outbred mouse plasma at 0.4 mg/kg, po; assay type: ADME, organism-based; parameters: dose 0.4 mg/kg, route oral; details: in vivo
[34] = AUC (0 to infinity) in Swiss outbred mouse plasma at 0.4 mg/kg, po; assay type: ADME, organism-based; parameters: time infinity, dose 0.4 mg/kg, route oral
[35] = test system: Plasmodium falciparum; assay: Antimalarial activity against Plasmodium falciparum 3D7 0087/N9 infected in human RBC engrafted NOD-SCID IL-2Rgamma-null mouse assessed as reduction in parasitemia administered orally 3 days post infection qd for 4 days measured 24 hrs after final dose by FACS analysis; assay type: functional; details: 3D7 0087/N9, po
[36] = test system: Plasma; assay: Plasma protein binding in human by chromatographic method; assay type: ADME, cell-free
[37] = test system: Plasmodium falciparum; assay: Antimalarial activity against […] Plasmodium falciparum TM90C2A by [3H]hypoxanthine incorporation assay in presence of human serum; assay type: functional, organism-based
[38] = test system: Mus musculus; assay: AUC (0 to 24 hrs) in human RBC engrafted NOD-SCID IL-2Rgamma-null mouse at 7 mg/kg, po; assay type: ADME, organism-based, Plasma; parameters: time < 24 hr, dose 7 mg/kg, route oral; details: in vivo
[39] = Cmax in human RBC engrafted NOD-SCID IL-2Rgamma-null mouse at 7 mg/kg, po; assay type: ADME, organism-based; parameters: dose 7 mg/kg, route oral; details: in vivo
[40] = Plasma protein binding in Swiss outbred mouse by ultracentrifugation; details: read-out: PPB (converted)
[41] = test system: L1210; assay: Cytotoxicity against mouse L1210 cells; assay type: cell-based
[42] = test system: Plasmodium falciparum; assay: Antimalarial activity against Plasmodium falciparum D10 transfected with yeast DHODH by [3H]hypoxanthine incorporation assay; assay type: functional, organism-based
[43] = in vivo; details: Swiss outbred, mouse, po, 0.4 mg/kg
[44] = Oral bioavailability in Sprague-Dawley rat at 18.8 mg/kg; assay type: ADME, organism-based; details: in vivo
[45] = Aqueous solubility of the compound at pH 6.5; assay type: physicochemical
[46] = in vivo; details: NOD-SCID IL-2Rgamma-null, mouse, po, 7 mg/kg; remark: listed apart in the source
[47] = Oral bioavailability in Sprague-Dawley rat at 2.1 mg/kg; assay type: ADME, organism-based; details: in vivo
[48] = Volume of distribution in Sprague-Dawley rat at 0.9 mg/kg, iv; assay type: ADME, organism-based; parameters: dose 0.9 mg/kg, route intravenous; details: in vivo
[49] = Cmax in human RBC engrafted NOD-SCID IL-2Rgamma-null mouse infected with Plasmodium falciparum 3D7 0087/N9 at 7 mg/kg, po; assay type: ADME, organism-based; parameters: dose 7 mg/kg, route oral; details: in vivo
[50] = in vivo; details: Swiss outbred, mouse, po, 50 mg/kg
[51] = Terminal elimination half life in Sprague-Dawley rat at 46.7 mg/kg, po; assay type: ADME, organism-based; parameters: dose 46.7 mg/kg, route oral; details: in vivo, read-out: beta t1/2 (converted)
[52] = test system: Plasmodium falciparum; assay: Antimalarial activity against drug-sensitive Plasmodium falciparum HB3 by [3H]hypoxanthine incorporation assay in presence of human serum; assay type: functional, organism-based
[53] = Terminal elimination half life in Swiss outbred mouse at 50 mg/kg, po; assay type: ADME, organism-based; parameters: dose 50 mg/kg, route oral; details: in vivo, read-out: beta t1/2 (converted)
[54] = in vivo; details: Sprague-Dawley, rat, po, 2.1 mg/kg
[55] = in vivo; details: Sprague-Dawley, rat, po, 18.8 mg/kg
[56] = Terminal elimination half life in Sprague-Dawley rat at 0.9 mg/kg, iv; assay type: ADME, organism-based; parameters: dose 0.9 mg/kg, route intravenous; details: in vivo, read-out: beta t1/2 (converted)
[57] = AUC (0 to infinity) in Swiss outbred mouse plasma at 2 mg/kg, po; assay type: ADME, organism-based; parameters: time infinity, dose 2 mg/kg, route oral
[58] = Cmax in Swiss outbred mouse at 0.4 mg/kg, po; assay type: ADME, organism-based; parameters: dose 0.4 mg/kg, route oral; details: in vivo
[59] = Terminal elimination half life in Swiss outbred mouse at 10 mg/kg, po; assay type: ADME, organism-based; parameters: dose 10 mg/kg, route oral; details: in vivo, read-out: beta t1/2 (converted)
[60] = AUC (0 to infinity) in Swiss outbred mouse plasma at 10 mg/kg, po; assay type: ADME, organism-based; parameters: time infinity, dose 10 mg/kg, route oral
[61] = AUC (0 to infinity) in Sprague-Dawley rat at 46.7 mg/kg, po; assay type: ADME, organism-based; parameters: time infinity, dose 46.7 mg/kg, route oral; details: plasma
[62] = test system: Mus musculus; assay: Time plasma concentration remained above 1 uM in Swiss outbred mouse plasma at 10 mg/kg, po; assay type: ADME, organism-based; parameters: dose 10 mg/kg, route oral; details: in vivo

With `Cc1cc(Nc2ccc(S(F)(F)(F)(F)F)cc2)n2nc(C(C)(F)F)nc2n1` [DSM-265] the AUC(0-inf) [1] was 15.5 µM·h, the half-life [2] was 11.6 h and the Cmax [3] was 0.75 µM. For the same compound, the Cmax [4] was 3.1 µM, the EC50 [5] was 86 nM and the bioavailability [6] was 61%. It also gave an EC50 [7] of 57 nM, a half-life [8] of 15.5 h and a Cmax [9] of 9.53 µM. It also gave a half-life [10] of 12.6 h, an EC50 [11] of 7.8 nM and an EC50 [12] of 15 nM. For the same compound, the Time [13] was 0 h, the half-life [14] was 3.5 h and the Cmax [15] was 0.44 µM. It also gave an Intrinsic clearance [16] of less than 5 µL/min/mg, a Vd [17] of 5.9 L/kg and an EC50 [18] of 46 nM. It also gave a fraction unbound [19] of 0.027, a Tmax [20] of 17 h and an AUC(0-inf) [21] of 122 µM·h. For the same compound, the Cmax [22] was 3.9 µM, the Tmax [23] was 4 h and the EC50 [24] was greater than 50000 nM. It also gave an EC50 [25] of 57 nM, a clearance [26] of 6 mL/min/kg and a Tmax [27] of 1.5 h. It also gave an AUC(0-inf) [28] of 33.8 µM·h, a Tmax [29] of 1 h and a half-life [30] of 4.1 h. It also gave a Cmax [31] of 6.4 µM, an EC50 [32] of 22 nM and a Time [33] of 0 h. It also gave an AUC(0-inf) [34] of 0.45 µM·h, an ED50 [35] of 2.8 mg/kg and an ED90 [35] of 8.1 mg/kg. It also gave a PPB [36] of 97.4%, an EC50 [37] of 31 nM and an AUC [38] of 3469 µM·min. The Cmax [39] was 6.1 µM, the fraction unbound [40] was 0.004 and the EC50 [41] was greater than 50000 nM. For the same compound, the EC50 [42] was greater than 20000 nM, the Tmax [43] was 0.5 h and the bioavailability [44] was 57%. For the same compound, the solubility [45] was 30 µM (≈ 12.5 µg/mL), the Tmax [46] was 6.7 h and the bioavailability [47] was 66%. For the same compound, the Vd [48] was 2.9 L/kg, the Cmax [49] was 5.3 µM and the Tmax [50] was 2 h. For the same compound, the half-life [51] was 27.9 h, the EC50 [52] was 27 nM and the half-life [53] was 3.2 h. For the same compound, the Tmax [54] was 3.25 h, the Tmax [55] was 7 h and the half-life [56] was 10.1 h. It also gave an AUC(0-inf) [57] of 2.72 µM·h, a Cmax [58] of 0.06 µM and a half-life [59] of 2.5 h. The AUC(0-inf) [60] was 22.6 µM·h, the AUC(0-inf) [61] was 322 µM·h and the Time [62] was 8 h.
